# Data published in the supplement of paper PMC10307832.
# Tests used:
# Test in all cases: relative viability (nuclei count vs DMSO), 5 days (fraction); higher = more cells survive
# MK-8033 + Pictilisib = compound: Cn1cc(-c2cnc3ccc4ccc(CS(=O)(=O)NCc5ccccn5)cc4c(=O)c3c2)cn1 [MK-8033] + CS(=O)(=O)N1CCN(Cc2cc3nc(-c4cccc5[nH]ncc45)nc(N4CCOCC4)c3s2)CC1 [Pictilisib] (partner 1 µM)
# Method in brief: (§1)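 Relative viability equals treated-well nuclei counts divided by vehicle-well nuclei counts. Counts came from 4× images of lung cancer cell lines grown in 1536-well plates for 5 days after pin-tool dosing on the day after seeding. Dosing used one drug alone or a fixed anchor-drug dose plus five library-drug doses (not always all listed) in √10 steps, and values are medians of duplicate plates.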
# Irinotecan + Pictilisib = compound: CCc1c2c(nc3ccc(OC(=O)N4CCC(N5CCCCC5)CC4)cc13)-c1cc3c(c(=O)n1C2)COC(=O)[C@]3(O)CC [Irinotecan] + CS(=O)(=O)N1CCN(Cc2cc3nc(-c4cccc5[nH]ncc45)nc(N4CCOCC4)c3s2)CC1 [Pictilisib] (partner 1 µM)
# Method in brief: as §1
# RU-SKI 43 + Pictilisib = compound: CC[C@@H](C)CNCC(=O)N1CCC2=C([C@@H]1COC3=CC=CC(=C3)C)C=CS2 [RU-SKI 43] + CS(=O)(=O)N1CCN(Cc2cc3nc(-c4cccc5[nH]ncc45)nc(N4CCOCC4)c3s2)CC1 [Pictilisib] (partner 1 µM)
# Method in brief: as §1
# RU-SKI 43 + Decitabine = compound: CC[C@@H](C)CNCC(=O)N1CCC2=C([C@@H]1COC3=CC=CC(=C3)C)C=CS2 [RU-SKI 43] + Nc1ncn([C@H]2C[C@H](O)[C@@H](CO)O2)c(=O)n1 [Decitabine] (partner 2 µM)
# Method in brief: as §1
Cell Line,relative viability (MK-8033 + Pictilisib; first compound 0.02 µM),relative viability (MK-8033 + Pictilisib; first compound 0.06325 µM),relative viability (MK-8033 + Pictilisib; first compound 0.2 µM),relative viability (MK-8033 + Pictilisib; first compound 0.6325 µM),relative viability (MK-8033 + Pictilisib; first compound 2 µM),relative viability (Irinotecan + Pictilisib; first compound 2 µM),relative viability (Irinotecan + Pictilisib; first compound 6.325 µM),relative viability (Irinotecan + Pictilisib; first compound 20 µM),relative viability (RU-SKI 43 + Pictilisib; first compound 0.1 µM),relative viability (RU-SKI 43 + Pictilisib; first compound 0.3162 µM),relative viability (RU-SKI 43 + Pictilisib; first compound 1 µM),relative viability (RU-SKI 43 + Pictilisib; first compound 3.162 µM),relative viability (RU-SKI 43 + Pictilisib; first compound 10 µM),relative viability (RU-SKI 43 + Decitabine; first compound 0.1 µM),relative viability (RU-SKI 43 + Decitabine; first compound 0.3162 µM),relative viability (RU-SKI 43 + Decitabine; first compound 1 µM),relative viability (RU-SKI 43 + Decitabine; first compound 3.162 µM),relative viability (RU-SKI 43 + Decitabine; first compound 10 µM),relative viability (Irinotecan + Pictilisib; first compound 0.6325 µM)
NCI-H2126,0.491,0.393,0.455,0.515,0.491,0.41,0.286,0.335,0.491,0.407,0.549,0.492,0.507,0.591,0.574,0.523,0.615,0.554,
ABC-1,0.969,0.564,0.689,0.674,0.699,0.556,0.424,0.112,0.676,0.842,0.753,0.701,0.772,1.01,1.14,1.2,1.07,1.17,
NCI-H1355,0.424,0.302,0.442,0.393,0.442,0.407,0.202,0.238,0.432,0.331,0.508,0.465,0.442,0.351,0.378,0.348,0.348,0.354,0.201
A-427,0.676,0.7,0.677,0.734,0.644,0.392,0.19,0.225,0.83,0.66,0.878,,0.675,0.555,0.477,0.568,0.551,0.538,
NCI-H3122,0.676,0.563,0.602,0.66,0.628,0.349,0.202,0.174,0.644,0.543,0.641,0.559,0.578,0.365,0.478,0.469,0.413,0.391,0.514
NCI-H1437,0.56,0.409,0.384,0.449,0.482,0.322,0.184,0.115,0.438,0.529,0.432,0.465,0.446,0.591,0.582,0.601,0.56,0.557,0.366
COR-L23,0.8,0.731,0.697,0.876,0.823,0.363,0.228,0.0867,0.754,0.756,0.897,0.986,0.738,0.428,0.369,0.448,0.514,0.433,0.338
NCI-H1651,0.602,0.528,0.433,0.631,0.507,0.425,0.175,0.108,0.606,0.783,0.76,0.621,0.728,0.624,0.593,0.7,0.593,0.589,0.427
